Source: ChEMBL document CHEMBL3616373, “Identification of N-sulfonyl-tetrahydroquinolines as RORc inverse agonists” (Bioorg Med Chem Lett, 2015)
The source made the active and inactive calls. The calls are words filed in the database; no cut-off is given here.

How the values were obtained:
[1] = target: T1, Nuclear receptor ROR-gamma (Homo sapiens) (UniProt P51449); assay: Inverse agonist activity at N-terminal 6xHis-tagged human RORc ligand binding domain (241 to 486) expressed in bacterial expression system assessed as inhibition of SRC1 co-activator peptide recruitment after 3 hrs by TR-FRET analysis relative to apo-RORc ligand binding domain
T1 sequence (whole entry): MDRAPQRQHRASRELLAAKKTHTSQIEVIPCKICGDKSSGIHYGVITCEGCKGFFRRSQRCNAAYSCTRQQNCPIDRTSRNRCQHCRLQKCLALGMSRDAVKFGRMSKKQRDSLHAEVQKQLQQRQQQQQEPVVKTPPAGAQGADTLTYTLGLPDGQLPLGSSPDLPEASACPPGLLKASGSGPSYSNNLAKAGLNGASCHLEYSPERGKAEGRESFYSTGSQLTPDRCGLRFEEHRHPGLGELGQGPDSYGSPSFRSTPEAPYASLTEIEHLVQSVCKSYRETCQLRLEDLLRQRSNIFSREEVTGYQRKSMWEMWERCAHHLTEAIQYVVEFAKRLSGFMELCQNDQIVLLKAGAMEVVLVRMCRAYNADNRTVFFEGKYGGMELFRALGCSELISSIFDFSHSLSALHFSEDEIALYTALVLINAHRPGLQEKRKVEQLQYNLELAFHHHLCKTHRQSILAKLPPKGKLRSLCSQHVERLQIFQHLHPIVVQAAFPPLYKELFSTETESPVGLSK

[2] = target: T2, Nuclear receptor ROR-beta (Homo sapiens, UniProt Q92753); assay: Inverse agonist activity at GAL4-fused human RORb expressed in HEK293 cells assessed as suppression of basal transcriptional activity after 20 hrs by dual-glo luciferase reporter gene assay; type: cell-based
T2 sequence (Q92753 whole entry): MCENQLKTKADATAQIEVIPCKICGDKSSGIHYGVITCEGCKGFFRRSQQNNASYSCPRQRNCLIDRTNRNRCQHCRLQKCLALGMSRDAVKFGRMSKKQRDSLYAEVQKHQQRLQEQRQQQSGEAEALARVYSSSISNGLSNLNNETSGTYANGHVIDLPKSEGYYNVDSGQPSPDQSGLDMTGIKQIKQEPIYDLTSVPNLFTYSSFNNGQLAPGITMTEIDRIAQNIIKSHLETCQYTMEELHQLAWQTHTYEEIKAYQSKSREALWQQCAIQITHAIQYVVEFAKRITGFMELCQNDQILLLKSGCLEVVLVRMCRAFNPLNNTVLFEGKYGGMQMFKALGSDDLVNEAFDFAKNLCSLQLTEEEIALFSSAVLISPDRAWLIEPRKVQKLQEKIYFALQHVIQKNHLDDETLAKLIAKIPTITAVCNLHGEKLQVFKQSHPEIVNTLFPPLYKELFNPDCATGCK

Bile acid receptor = target: T3, Bile acid receptor (Homo sapiens, UniProt Q96RI1); assay: Antagonist activity at GAL4-fused human FXR expressed in HEK293 cells assessed as inhibition of T0901317-stimulated transcriptional activity after 20 hrs by dual-glo luciferase reporter gene assay; type: cell-based
T3 sequence (Q96RI1 whole entry): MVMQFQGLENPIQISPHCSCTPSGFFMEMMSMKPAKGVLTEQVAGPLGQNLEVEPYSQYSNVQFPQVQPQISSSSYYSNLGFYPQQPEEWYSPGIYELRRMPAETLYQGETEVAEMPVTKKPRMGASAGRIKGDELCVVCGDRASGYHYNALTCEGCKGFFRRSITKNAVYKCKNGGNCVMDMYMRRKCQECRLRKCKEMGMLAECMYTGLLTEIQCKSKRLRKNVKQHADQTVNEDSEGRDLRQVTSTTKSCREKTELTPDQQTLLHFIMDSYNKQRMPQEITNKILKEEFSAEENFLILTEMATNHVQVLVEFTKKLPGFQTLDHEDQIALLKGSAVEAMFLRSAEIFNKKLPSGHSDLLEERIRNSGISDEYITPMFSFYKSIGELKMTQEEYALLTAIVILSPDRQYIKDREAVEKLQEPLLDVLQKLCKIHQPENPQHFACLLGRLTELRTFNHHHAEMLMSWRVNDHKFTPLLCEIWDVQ

[3] = target: T4, Oxysterols receptor LXR-alpha (Homo sapiens) (UniProt Q13133); assay: Agonist activity at GAL4-fused human LXRalpha expressed in HEK293 cells assessed as activation of basal transcriptional activity up to 10 uM after 20 hrs by dual-glo luciferase reporter gene assay; type: cell-based
T4 sequence (whole entry): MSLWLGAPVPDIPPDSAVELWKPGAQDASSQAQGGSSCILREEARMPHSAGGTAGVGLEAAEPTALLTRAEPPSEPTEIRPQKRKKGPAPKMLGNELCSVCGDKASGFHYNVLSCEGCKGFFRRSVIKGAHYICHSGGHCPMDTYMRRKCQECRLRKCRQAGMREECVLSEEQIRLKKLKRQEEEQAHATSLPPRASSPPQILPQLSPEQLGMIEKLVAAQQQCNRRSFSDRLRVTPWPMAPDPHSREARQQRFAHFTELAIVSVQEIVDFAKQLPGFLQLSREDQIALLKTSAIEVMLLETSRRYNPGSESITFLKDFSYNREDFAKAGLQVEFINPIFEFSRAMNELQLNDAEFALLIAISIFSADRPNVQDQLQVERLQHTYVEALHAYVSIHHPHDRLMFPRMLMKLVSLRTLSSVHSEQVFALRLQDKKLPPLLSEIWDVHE

[4] = target: T5, Oxysterols receptor LXR-beta (Homo sapiens) (UniProt P55055); assay: Agonist activity at GAL4-fused human LXRbeta expressed in HEK293 cells assessed as activation of basal transcriptional activity up to 10 uM after 20 hrs by dual-glo luciferase reporter gene assay; type: cell-based
T5 sequence (whole entry): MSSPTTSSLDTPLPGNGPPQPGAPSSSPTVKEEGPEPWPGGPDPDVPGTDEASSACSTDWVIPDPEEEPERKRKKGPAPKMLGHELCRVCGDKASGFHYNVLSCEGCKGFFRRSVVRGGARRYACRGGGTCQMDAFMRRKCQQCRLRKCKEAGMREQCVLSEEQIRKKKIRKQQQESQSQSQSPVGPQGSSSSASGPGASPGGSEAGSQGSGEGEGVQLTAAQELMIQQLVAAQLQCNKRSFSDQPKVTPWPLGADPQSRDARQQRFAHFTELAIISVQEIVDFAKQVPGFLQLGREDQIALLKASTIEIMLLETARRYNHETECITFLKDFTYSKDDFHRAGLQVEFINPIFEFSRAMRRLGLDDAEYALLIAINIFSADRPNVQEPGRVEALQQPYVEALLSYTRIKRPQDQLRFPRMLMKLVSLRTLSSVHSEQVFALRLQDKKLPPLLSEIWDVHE

[5] = target: T6, Bile acid receptor (Homo sapiens) (UniProt Q96RI1); assay: Agonist activity at GAL4-fused human FXR expressed in HEK293 cells assessed as activation of basal transcriptional activity up to 10 uM after 20 hrs by dual-glo luciferase reporter gene assay; type: cell-based
T6 sequence (whole entry): T3 sequence (Q96RI1 whole entry)

[6] = Plasma protein binding in rat at 5 uM after 4 hrs by equilibrium dialysis method; type: ADME, cell-free; conditions: read-out: PPB
[7] = target: T7, Oxysterols receptor LXR-alpha (Homo sapiens, UniProt Q13133); assay: Antagonist activity at GAL4-fused human LXRalpha expressed in HEK293 cells assessed as inhibition of T0901317-stimulated transcriptional activity after 20 hrs by dual-glo luciferase reporter gene assay; type: cell-based
T7 sequence (Q13133 whole entry): T4 sequence (whole entry)

Question: What does the source list for `O=C(Nc1ccc2c(c1)N(S(=O)(=O)c1ccc(F)cc1)CCC2)c1c(F)cccc1Cl`?
Answer: Efficacy [1]: -89%; EC50 [2]: 3.4 µM; EC50 (Bile acid receptor): 5.3 µM; Activity [3]: inactive; Activity [4]: inactive; Activity [5]: inactive; fraction unbound at 4 h, 5 µM [6]: < 0.01

Question: What does the source list for `O=C(Nc1ccc2c(c1)N(S(=O)(=O)c1ccc(F)cc1)CCC2)c1ccccc1Cl`?
Answer: Efficacy [1]: -89%; EC50 [2]: 4.1 µM; EC50 [7]: 2.6 µM; EC50 (Bile acid receptor): 5.9 µM; Activity [3]: inactive; Activity [4]: inactive; Activity [5]: inactive; fraction unbound at 4 h, 5 µM [6]: < 0.01

Question: Which Efficacy [1] does the source give for `O=C(Nc1ccc2c(c1)N(S(=O)(=O)c1ccc(F)cc1)CC2)c1c(F)cccc1F` here?
Answer: The Efficacy was -99%.

Question: And the EC50 [2]?
Answer: The EC50 was 7.9 µM.

Question: What about the EC50 [7] of the same compound?
Answer: Its EC50 is 4.2 µM.

Question: What about the EC50 (Bile acid receptor) of the same compound?
Answer: The EC50 was 4.2 µM.

Question: And the Activity [3]?
Answer: The Activity was “inactive”.

Question: And the Activity [4]?
Answer: Its Activity is “inactive”.

Question: And the Activity [5]?
Answer: Its Activity is “inactive”.

Question: What about the fraction unbound at 4 h, 5 µM [6] of the same compound?
Answer: Its fraction unbound at 4 h, 5 µM is 0.01.

Question: Which Efficacy [1] does the source give for `O=C(Nc1ccc2c(c1)N(S(=O)(=O)c1ccc(F)cc1)CCC2)c1c(F)cccc1F` here?
Answer: The Efficacy was -99%.

Question: And the EC50 [2]?
Answer: Its EC50 is 5.4 µM.

Question: What about the EC50 [7] of the same compound?
Answer: The EC50 was 4.1 µM.

Question: And the EC50 (Bile acid receptor)?
Answer: Its EC50 is 7.6 µM.

Question: What about the Activity [3] of the same compound?
Answer: The Activity was “inactive”.

Question: And the Activity [4]?
Answer: Its Activity is “inactive”.

Question: And the Activity [5]?
Answer: Its Activity is “inactive”.

Question: And the fraction unbound at 4 h, 5 µM [6]?
Answer: Its fraction unbound at 4 h, 5 µM is 0.01.
